Laboratory results from ChEMBL document CHEMBL1201861, “Genomics of Drug Sensitity in Cancer screening data, Wellcome Trust Sanger Institute”.

How the values were obtained:
Assay in all cases: cells
[1] = system: COLO-792; assay type: functional, cell-based; conditions: Homo sapiens
Description: SANGER: Inhibition of human COLO-792 cell growth in a cell viability assay.

[2] = system: CTV-1; assay type: functional, cell-based; conditions: Homo sapiens;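 note: growth inhibition of the cell line, read out with a cell viability assay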
Description: SANGER: Inhibition of human CTV-1 cell growth in a cell viability assay.

[3] = system: DB; assay type: functional, cell-based; conditions: Homo sapiens
Description: SANGER: Inhibition of human DB cell growth in a cell viability assay.

[4] = system: DOHH-2; assay type: functional, cell-based; conditions: Homo sapiens;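 note: growth inhibition of human DOHH-2 cells, read out with a cell viability assay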
Description: SANGER: Inhibition of human DOHH-2 cell growth in a cell viability assay.

[5] = system: Detroit 562; assay type: functional, cell-based; conditions: Homo sapiens;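 note: growth inhibition of human Detroit 562 cells, read out by a cell viability assay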
Description: SANGER: Inhibition of human Detroit562 cell growth in a cell viability assay.

[6] = system: ES5; assay type: functional, cell-based; conditions: Homo sapiens;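 note: growth inhibition of human ES5 cells, read out by a cell viability assay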
Description: SANGER: Inhibition of human ES5 cell growth in a cell viability assay.

[7] = system: ETK-1; assay type: functional, cell-based; conditions: Homo sapiens;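 note: growth inhibition of human ETK-1 cells, read out with a cell viability assay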
Description: SANGER: Inhibition of human ETK-1 cell growth in a cell viability assay.

[8] = system: EW-13; assay type: functional, cell-based; conditions: Homo sapiens;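 note: growth inhibition of EW-13 cells, read out with a cell viability assay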
Description: SANGER: Inhibition of human EW-13 cell growth in a cell viability assay.

[9] = system: EOL1; assay type: functional, cell-based; conditions: Homo sapiens;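 note: growth inhibition of EoL-1 cells, read out by a cell viability assay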
Description: SANGER: Inhibition of human EoL-1-cell cell growth in a cell viability assay.

[10] = system: GAK; assay type: functional, cell-based; conditions: Homo sapiens;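 note: cell growth inhibition read out by a cell viability assay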
Description: SANGER: Inhibition of human GAK cell growth in a cell viability assay.

[11] = system: GB-1; assay type: functional, cell-based; conditions: Homo sapiens;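 note: growth of GB-1 cells judged by a viability assay, IC50 marks the concentration inhibiting growth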
Description: SANGER: Inhibition of human GB-1 cell growth in a cell viability assay.

[12] = system: GR-ST; assay type: functional, cell-based; conditions: Homo sapiens
Description: SANGER: Inhibition of human GR-ST cell growth in a cell viability assay.

[13] = system: HCE-4; assay type: functional, cell-based; conditions: Homo sapiens;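 note: cell viability assay measuring inhibition of growth in the human HCE-4 cell line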
Description: SANGER: Inhibition of human HCE-4 cell growth in a cell viability assay.

[14] = system: HCE-T; assay type: functional, cell-based; conditions: Homo sapiens;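 note: cell viability assay read-out, reporting inhibition of HCE-T cell growth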
Description: SANGER: Inhibition of human HCE-T cell growth in a cell viability assay.

[15] = system: HD-MY-Z; assay type: functional, cell-based; conditions: Homo sapiens;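 note: growth inhibition of HD-MY-Z cells, read out with a cell viability assay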
Description: SANGER: Inhibition of human HD-MY-Z cell growth in a cell viability assay.

[16] = system: HH; assay type: functional, cell-based; conditions: Homo sapiens
Description: SANGER: Inhibition of human HH cell growth in a cell viability assay.

[17] = system: HT-144; assay type: functional, cell-based; conditions: Homo sapiens
Description: SANGER: Inhibition of human HT-144 cell growth in a cell viability assay.

[18] = system: IST-SL1; assay type: functional, cell-based; conditions: Homo sapiens;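 note: growth inhibition of human IST-SL1 cells, read out with a cell viability assay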
Description: SANGER: Inhibition of human IST-SL1 cell growth in a cell viability assay.

[19] = system: KARPAS-45; assay type: functional, cell-based; conditions: Homo sapiens;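 note: inhibition of cell line growth, read out through a viability assay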
Description: SANGER: Inhibition of human KARPAS-45 cell growth in a cell viability assay.

[20] = system: KG-1; assay type: functional, cell-based; conditions: Homo sapiens;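 note: growth inhibition of KG-1 cells, read out by a cell viability assay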
Description: SANGER: Inhibition of human KG-1 cell growth in a cell viability assay.

[21] = system: KM12; assay type: functional, cell-based; conditions: Homo sapiens;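 note: KM12 cell growth inhibition, read out with a cell viability assay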
Description: SANGER: Inhibition of human KM12 cell growth in a cell viability assay.

[22] = system: KNS-81-FD; assay type: functional, cell-based; conditions: Homo sapiens;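 note: growth inhibition of KNS-81-FD cells, read out with a cell viability assay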
Description: SANGER: Inhibition of human KNS-81-FD cell growth in a cell viability assay.

[23] = system: KU812 cell line; assay type: functional, cell-based; conditions: Homo sapiens;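 note: growth inhibition of KU812 cells, read out with a cell viability assay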
Description: SANGER: Inhibition of human KU812 cell growth in a cell viability assay.

[24] = system: LB2241-RCC; assay type: functional, cell-based; conditions: Homo sapiens;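 note: cell viability assay measuring how strongly the cultured human renal carcinoma line is prevented from growing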
Description: SANGER: Inhibition of human LB2241-RCC cell growth in a cell viability assay.

[25] = system: LB2518-MEL; assay type: functional, cell-based; conditions: Homo sapiens;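 note: growth inhibition of human LB2518-MEL cells, measured with a cell viability assay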
Description: SANGER: Inhibition of human LB2518-MEL cell growth in a cell viability assay.

[26] = system: LS-123; assay type: functional, cell-based; conditions: Homo sapiens
Description: SANGER: Inhibition of human LS-123 cell growth in a cell viability assay.

[27] = system: MFM-223; assay type: functional, cell-based; conditions: Homo sapiens
Description: SANGER: Inhibition of human MFM-223 cell growth in a cell viability assay.

[28] = system: ML-2; assay type: functional, cell-based; conditions: Homo sapiens;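 note: growth inhibition of ML-2 cells, measured with a cell viability readout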
Description: SANGER: Inhibition of human ML-2 cell growth in a cell viability assay.

[29] = system: MOLT-4; assay type: functional, cell-based; conditions: Homo sapiens;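 note: growth inhibition of MOLT-4 cells, determined with a cell viability readout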
Description: SANGER: Inhibition of human MOLT-4 cell growth in a cell viability assay.

[30] = system: MZ2-MEL; assay type: functional, cell-based; conditions: Homo sapiens;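 note: growth inhibition of MZ2-MEL cells read out with a cell viability assay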
Description: SANGER: Inhibition of human MZ2-MEL cell growth in a cell viability assay.

[31] = system: NCI-H1155; assay type: functional, cell-based; conditions: Homo sapiens;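 note: cell growth inhibition measured by a viability assay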
Description: SANGER: Inhibition of human NCI-H1155 cell growth in a cell viability assay.

[32] = system: NCI-H1304; assay type: functional, cell-based; conditions: Homo sapiens;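 note: growth inhibition of the cancer cell line, measured in a cell viability assay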
Description: SANGER: Inhibition of human NCI-H1304 cell growth in a cell viability assay.

[33] = system: NCI-H1395; assay type: functional, cell-based; conditions: Homo sapiens;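 note: cell viability assay read-out quantifying reduced proliferation of human NCI-H1395 cells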
Description: SANGER: Inhibition of human NCI-H1395 cell growth in a cell viability assay.

[34] = system: NCI-H2228; assay type: functional, cell-based; conditions: Homo sapiens;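 note: growth inhibition of human NCI-H2228 cells, read out by a cell viability assay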
Description: SANGER: Inhibition of human NCI-H2228 cell growth in a cell viability assay.

[35] = system: SNU-5; assay type: functional, cell-based; conditions: Homo sapiens;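 note: cell viability readout used to measure growth inhibition in human NCI-SNU-5 cells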
Description: SANGER: Inhibition of human NCI-SNU-5 cell growth in a cell viability assay.

[36] = system: NEC8; assay type: functional, cell-based; conditions: Homo sapiens;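 note: growth inhibition of human NEC8 cells, read out by a cell viability assay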
Description: SANGER: Inhibition of human NEC8 cell growth in a cell viability assay.

[37] = system: NOMO-1; assay type: functional, cell-based; conditions: Homo sapiens;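 note: growth inhibition of human NOMO-1 cells measured by a cell viability assay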
Description: SANGER: Inhibition of human NOMO-1 cell growth in a cell viability assay.

[38] = system: NY; assay type: functional, cell-based; conditions: Homo sapiens
Description: SANGER: Inhibition of human NY cell growth in a cell viability assay.

[39] = system: OCI-AML2; assay type: functional, cell-based; conditions: Homo sapiens;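 note: growth inhibition of OCI-AML2 cells, read out with a cell viability assay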
Description: SANGER: Inhibition of human OCI-AML2 cell growth in a cell viability assay.

[40] = system: OE19; assay type: functional, cell-based; conditions: Homo sapiens;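 note: growth inhibition of OE19 cells, measured through a cell viability read-out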
Description: SANGER: Inhibition of human OE19 cell growth in a cell viability assay.

[41] = system: OS-RC-2; assay type: functional, cell-based; conditions: Homo sapiens;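 note: growth inhibition of human OS-RC-2 cells, measured by a cell viability assay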
Description: SANGER: Inhibition of human OS-RC-2 cell growth in a cell viability assay.

[42] = system: P30-OHK; assay type: functional, cell-based; conditions: Homo sapiens;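 note: growth inhibition of the P30-OHK cell line, read out with a cell viability assay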
Description: SANGER: Inhibition of human P30-OHK cell growth in a cell viability assay.

[43] = system: QIMR-WIL; assay type: functional, cell-based; conditions: Homo sapiens;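 note: growth inhibition of QIMR-WIL cells, read out with a cell viability assay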
Description: SANGER: Inhibition of human QIMR-WIL cell growth in a cell viability assay.

[44] = system: RKO; assay type: functional, cell-based; conditions: Homo sapiens;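 note: growth inhibition of human RKO cells, read out with a cell viability assay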
Description: SANGER: Inhibition of human RKO cell growth in a cell viability assay.

[45] = system: RS4-11; assay type: functional, cell-based; conditions: Homo sapiens;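 note: growth inhibition of RS4-11 cells, read out by a cell viability assay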
Description: SANGER: Inhibition of human RS4-11 cell growth in a cell viability assay.

[46] = system: Ramos-2G6-4C10; assay type: functional, cell-based; conditions: Homo sapiens;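 note: growth inhibition of the cell line, measured by a cell viability read-out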
Description: SANGER: Inhibition of human Ramos-2G6-4C10 cell growth in a cell viability assay.

[47] = system: SCC-15; assay type: functional, cell-based; conditions: Homo sapiens;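 note: growth inhibition of SCC-15 cells, read out with a cell viability assay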
Description: SANGER: Inhibition of human SCC-15 cell growth in a cell viability assay.

[48] = system: SF-539; assay type: functional, cell-based; conditions: Homo sapiens;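 note: Read-out is a cell viability assay, with IC50 reflecting inhibition of cell growth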
Description: SANGER: Inhibition of human SF539 cell growth in a cell viability assay.

[49] = system: SH-4; assay type: functional, cell-based; conditions: Homo sapiens;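 note: growth inhibition of SH-4 cells, read out with a cell viability assay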
Description: SANGER: Inhibition of human SH-4 cell growth in a cell viability assay.

[50] = system: SK-N-FI; assay type: functional, cell-based; conditions: Homo sapiens;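 note: cell viability assay measuring growth inhibition of human SK-N-FI cells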
Description: SANGER: Inhibition of human SK-N-FI cell growth in a cell viability assay.

[51] = system: SNB-75; assay type: functional, cell-based; conditions: Homo sapiens;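 note: cell viability assay measuring growth inhibition of human SNB-75 cells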
Description: SANGER: Inhibition of human SNB75 cell growth in a cell viability assay.

[52] = system: SW 954; assay type: functional, cell-based; conditions: Homo sapiens;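 note: growth inhibition of SW954 human cancer cells, read out as cell viability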
Description: SANGER: Inhibition of human SW954 cell growth in a cell viability assay.

[53] = system: 769-P; assay type: functional, cell-based; conditions: Homo sapiens
Description: SANGER: Inhibition of human 769-P cell growth in a cell viability assay.

[54] = system: C-33-A; assay type: functional, cell-based; conditions: Homo sapiens;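 note: cell viability assay measuring growth inhibition of C-33-A cells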
Description: SANGER: Inhibition of human C-33-A cell growth in a cell viability assay.

[55] = system: CAL-12T; assay type: functional, cell-based, Homo sapiens; conditions: Homo sapiens, CAL-12T;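 note: growth inhibition of human CAL-12T cells, read out with a cell viability assay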
Description: SANGER: Inhibition of human CAL-12T cell growth in a cell viability assay.

[56] = system: TE-6; assay type: functional, cell-based; conditions: Homo sapiens;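 note: growth inhibition of TE-6 cells, read out with a cell viability assay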
Description: SANGER: Inhibition of human TE-6 cell growth in a cell viability assay.

[57] = system: TE-9; assay type: functional, cell-based; conditions: Homo sapiens;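 note: cell growth inhibition, measured with a cell viability readout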
Description: SANGER: Inhibition of human TE-9 cell growth in a cell viability assay.

[58] = system: U-87 MG; assay type: functional, cell-based, U-87MG ATCC; conditions: Homo sapiens;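 note: growth inhibition of the cells measured with a viability assay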
Description: SANGER: Inhibition of human U-87-MG cell growth in a cell viability assay.

[59] = system: UACC-257; assay type: functional, cell-based; conditions: Homo sapiens
Description: SANGER: Inhibition of human UACC-257 cell growth in a cell viability assay.

[60] = system: CAS-1; assay type: functional, cell-based; conditions: Homo sapiens;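 note: growth inhibition of CAS-1 cells, measured with a cell viability assay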
Description: SANGER: Inhibition of human CAS-1 cell growth in a cell viability assay.

Cn1c(=O)n(-c2ccc(C(C)(C)C#N)cc2)c2c3cc(-c4cnc5ccccc5c4)ccc3ncc21 [DACTOLISIB]
IC50 [1]: 354 nM | IC50 [2]: 32.8 nM | IC50 [3]: 27.4 nM | IC50 [4]: 46.4 nM | IC50 [5]: 102 nM | IC50 [6]: 14.7 nM | IC50 [7]: 7.88 nM | IC50 [8]: 95.8 nM | IC50 [9]: 13.9 nM | IC50 [10]: 98.9 nM | IC50 [11]: 54.2 nM | IC50 [12]: 52.9 nM | IC50 [13]: 262 nM | IC50 [14]: 83.7 nM | IC50 [15]: 44.9 nM | IC50 [16]: 15.7 nM | IC50 [17]: 196 nM | IC50 [18]: 1440 nM | IC50 [19]: 13.5 nM | IC50 [20]: 84.2 nM | IC50 [21]: 236 nM | IC50 [22]: 19.5 nM | IC50 [23]: 68.7 nM | IC50 [24]: 14 nM | IC50 [25]: 157 nM | IC50 [26]: 92.2 nM | IC50 [27]: 132 nM | IC50 [28]: 60.6 nM | IC50 [29]: 25.1 nM | IC50 [30]: 39.7 nM | IC50 [31]: 48.3 nM | IC50 [32]: 1650 nM | IC50 [33]: 199 nM | IC50 [34]: 88.3 nM | IC50 [35]: 337 nM | IC50 [36]: 67.2 nM | IC50 [37]: 45.9 nM | IC50 [38]: 1170 nM | IC50 [39]: 82.6 nM | IC50 [40]: 341 nM | IC50 [41]: 16.5 nM | IC50 [42]: 83.5 nM | IC50 [43]: 30.6 nM | IC50 [44]: 38.3 nM | IC50 [45]: 26.9 nM | IC50 [46]: 8.49 nM | IC50 [47]: 174 nM | IC50 [48]: 52.3 nM | IC50 [49]: 75.2 nM | IC50 [50]: 148 nM | IC50 [51]: 54.3 nM | IC50 [52]: 234 nM | IC50 [53]: 10.4 nM | IC50 [54]: 136 nM | IC50 [55]: 38.6 nM | IC50 [56]: 220 nM | IC50 [57]: 1130 nM | IC50 [58]: 301 nM | IC50 [59]: 214 nM | IC50 [60]: 207 nM

CC(=O)c1c(C)c2cnc(Nc3ccc(N4CCNCC4)cn3)nc2n(C2CCCC2)c1=O [PALBOCICLIB]
IC50 [1]: > 4000 nM | IC50 [2]: 2530 nM | IC50 [3]: 1070 nM | IC50 [4]: > 4000 nM | IC50 [5]: > 4000 nM | IC50 [6]: 753 nM | IC50 [7]: 3050 nM | IC50 [8]: > 4000 nM | IC50 [9]: 187 nM | IC50 [10]: > 4000 nM | IC50 [11]: > 4000 nM | IC50 [12]: > 4000 nM | IC50 [13]: > 4000 nM | IC50 [14]: > 4000 nM | IC50 [15]: > 4000 nM | IC50 [16]: 599 nM | IC50 [17]: > 4000 nM | IC50 [18]: > 4000 nM | IC50 [19]: 376 nM | IC50 [20]: 1270 nM | IC50 [21]: 1820 nM | IC50 [22]: > 4000 nM | IC50 [23]: 1890 nM | IC50 [24]: 1190 nM | IC50 [25]: > 4000 nM | IC50 [26]: > 4000 nM | IC50 [27]: > 4000 nM | IC50 [28]: 1210 nM | IC50 [29]: 345 nM | IC50 [30]: 1800 nM | IC50 [31]: > 4000 nM | IC50 [32]: > 4000 nM | IC50 [33]: > 4000 nM | IC50 [34]: > 4000 nM | IC50 [35]: > 4000 nM | IC50 [36]: > 4000 nM | IC50 [37]: > 4000 nM | IC50 [38]: > 4000 nM | IC50 [39]: > 4000 nM | IC50 [40]: > 4000 nM | IC50 [41]: 522 nM | IC50 [42]: > 4000 nM | IC50 [43]: 1130 nM | IC50 [44]: 2380 nM | IC50 [45]: 505 nM | IC50 [46]: 2770 nM | IC50 [47]: > 4000 nM | IC50 [48]: > 4000 nM | IC50 [49]: > 4000 nM | IC50 [50]: > 4000 nM | IC50 [51]: > 4000 nM | IC50 [52]: 929 nM | IC50 [53]: > 4000 nM | IC50 [54]: > 4000 nM | IC50 [55]: > 4000 nM | IC50 [56]: > 4000 nM | IC50 [57]: > 4000 nM | IC50 [58]: > 4000 nM | IC50 [59]: > 4000 nM | IC50 [60]: > 4000 nM
